Key:
[1] = test system: bleeding site of the porcine liver; test: Hemostasis of oozing bleeding created by abrading the porcine liver, usual application vs spray application; type: in vivo, pig; conditions: for hemostasis outcome: peptide 1.5% (FIG. 9)
From the text: Oozing bleeding was created by abrading the porcine liver using a metal file. A self-organizing peptide solution was applied to the bleeding by usual application or spray application and evaluated for its hemostatic effect and applied amount.
• Animal species: pig • Breed: LWD • Sex: female • The number of animals introduced: 2 • Age in days at the time of introduction: any Body weight at the time of introduction: 50 kg Institute receiving the animals: Narita experimental laboratory of NAS Laboratory Co., Ltd. • Distributor of the animals: Ishige Tikusan • Acclimatization period: approximately 7 days after introduction • Quarantine: the absence of abnormalities was confirmed by quarantine under clinical observation at the time of introduction and during the acclimatization period. • Individual discrimination: ear tag <Rearing Conditions> (1) Rearing environment
Atropine sulfate was intramuscularly administered at 0.05 mg/kg (dosing volume: 0.1 mL/kg) to each animal. Approximately 30 minutes later, 20 mg/kg (dosing volume: 0.4 mL/kg) of ketamine hydrochloride and 4 mg/kg (dosing volume: 0.2 mL/kg) of xylazine hydrochloride were mixed and intramuscularly administered thereto. Each anesthetic was introduced by the intramuscular administration to the ear root using a disposable syringe (Terumo Corp.) attached with an 18 G injection needle (Terumo Corp.). Then, a tracheal tube (TOP intratracheal tube, TOP Corp.) was intubated, and the anesthesia was maintained with isoflurane using an inhalation anesthesia apparatus SUBARU-KJ02 (Mikasa Kantou Syoukai Co., Ltd.) and a mechanical ventilator (COMPOS β-EV, Metran Co., Ltd.). The perioperative isoflurane concentration was set to 1 to 3%, and the amount of oxygen was set to 2 L/min. The intrapulmonary pressure of the mechanical ventilator was set to 15 cm H2O, and the respiratory rate was set to 15 times/min. Each animal was placed supine on an operating table and covered with a sterilized drape.
• 1. Each completely anesthetized pig was laparotomized by abdominal midline incision using a surgical knife and an electric surgical knife to expose the liver. • 2. Oozing bleeding was created by abrading the liver using a metal file. • 3. Each test substance was applied to the bleeding inclined plane by usual application (*1) or spray application (*2). • 4. The time from after the end of application to the end of assessment of the completion of hemostasis was measured using a stopwatch (*3). The amount of each test substance used until the end of the test was recorded. • *1: A syringe was packed with the peptide solution (test substance), and the peptide solution was pushed out of a nozzle at the tip of the syringe and thereby applied to the subject (see the syringe of FIG. 1). • 2: A syringe (equivalent to that of FIG. 1) packed with the peptide solution (test substance) was loaded in a spray gun, and compressed air was blown to a nozzle at the tip of the syringe using a compressor so that the peptide solution pushed out of the nozzle was sprayed to the subject. The spray pressure was generally 0.5 to 1.5 [kgf/cm2], though differing depending on the viscosity of each test substance, the status of bleeding, and the distance to the application site. • 3: If bleeding was not weakened after initial application (if it was judged that this condition would not lead to hemostasis), additional application was appropriately performed. The time of completion of initial application was defined as the start of measurement, and the time of completion of hemostasis assessment was defined as the end of measurement. <Results>

[2] = Storage elastic modulus of peptide solutions before application (frequency sweep test); type: physicochemical; conditions: shear stress 1 Pa
Experimental: Frequency sweep tests were conducted from 1 rad/sec to 10 rad/sec at a shear stress of 1 Pa, and the storage elastic modulus at 10 rad/sec was selected as data. As for a viscosity before gelling, tests were conducted for a soaking time of 2 min by loading each peptide solution between 20 mm plates with a gap distance of 500 um.

[3] = peptide concentrations of 1.5% or higher (1.5%, 2.0%, 2.5%)

| Sequence | amount of the solution applied until hemostasis, spray application group compared with usual application group ([1]; peptide concentration 1.0%) | hemostasis completion time, spray application group compared with usual application group ([1]; peptide concentration 1.0%) | amount of the solution applied until hemostasis, spray application group compared with usual application group [1, 3] | hemostasis completion time, spray application group compared with usual application group [1, 3] | Storage elastic modulus G′ (Pa) (mean: N = 3) ([2]; peptide 1.0% by weight, pH no treatment, at 10 rad/sec) | Storage elastic modulus G′ (Pa) (mean: N = 3) ([2]; peptide 1.5% by weight, pH no treatment, at 10 rad/sec) | Storage elastic modulus G′ (Pa) (mean: N = 3) ([2]; peptide 2.0% by weight, pH no treatment, at 10 rad/sec) | Storage elastic modulus G′ (Pa) (mean: N = 3) ([2]; peptide 2.5% by weight, pH no treatment, at 10 rad/sec) | amount of the solution applied until hemostasis, spray application group compared with usual application group ([1]; peptide concentration 1.5%) | hemostasis completion time, spray application group compared with usual application group ([1]; peptide concentration 1.5%) | Storage elastic modulus G′ (Pa) (mean: N = 3) ([2]; peptide 1.0% by weight, pH 3.0, at 10 rad/sec) | Storage elastic modulus G′ (Pa) (mean: N = 3) ([2]; peptide 1.5% by weight, pH 3.0, at 10 rad/sec) | hemostasis outcome ([1]; spray application) | hemostasis outcome ([1]; usual application) | Storage elastic modulus G′ (Pa) (mean: N = 3) ([2]; peptide 1.0% by weight, pH 7.5, at 10 rad/sec) | Storage elastic modulus G′ (Pa) (mean: N = 3) ([2]; peptide 1.5% by weight, pH 7.5, at 10 rad/sec) | Storage elastic modulus G′ (Pa) (mean: N = 3) ([2]; peptide 2.0% by weight, pH 7.5, at 10 rad/sec) |
| --- | --- | --- | --- | --- | --- | --- | --- | --- | --- | --- | --- | --- | --- | --- | --- | --- | --- |
| RADARADARADARADA [Peptide No. 1] | smaller amount of the solution applied until hemostasis | tendencies of a shorter hemostasis completion time | smaller amount of the solution applied until hemostasis | evidently resulted in a shorter hemostasis completion time | 30 | 75 | 141 | 503 |  |  |  |  |  |  |  |  |  |
| IEIKIEIKIEIKI [Peptide No. 2] | no significant difference | no significant difference |  |  |  |  |  |  | smaller amount of the solution applied until hemostasis | evidently resulted in a shorter hemostasis completion time | 349.0 | 2,309 Pa |  |  |  |  |  |
| RLDLRLALRLDLR (Ac-RLDLRLALRLDLR-NH2) [Peptide No. 3, self-assembling peptide, solution in purified water] |  |  |  |  |  |  |  |  |  |  |  |  | succeeded in hemostasis | failed in hemostasis | 75 | 239 | 439 |

From patent US12138291B2, “Hemostatic composition and hemostatic method using hemostatic composition” (3-D MATRIX, LTD., priority 2015, dated 2024)
